In patent US20230085307A1, “PYRIDAZINONE COMPOUND AND HERBICIDE” (NISSAN CHEMICAL CORPORATION, priority 2019, published 2023):

Experiments:
Chinese sprangletop = experiment: Test Example 3: herbicidal effect by foliage application, Wagner pot (Table 18, symbol D); assay type: in vivo, chinese sprangletop (Leptochloa chinensis); conditions: 320 g/ha
Outline: (§1)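 Plants were sown in alluvial soil held under 0.1–0.5 cm standing water and grown 14 days in a greenhouse at 25–30 °C. An emulsifiable formulation, water-diluted to the set dose, was then sprayed onto the foliage, and effects were scored three weeks later using previously defined criteria.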

redroot pigweed = experiment: Test Example 5: herbicidal effect by foliage application, plastic box (Table 20, symbol N); assay type: in vivo, redroot pigweed (Amaranthus retroflexus); conditions: amount of applied herbicide 320 g/ha; foliage application after 14-day growth; evaluated three weeks after application
Outline: (§2)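 Post-emergence foliar test in sterilized diluvial soil. Compound applied as water-diluted emulsion at a predetermined rate to 14-day-old plants; evaluation at three weeks.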

persian speedwell = experiment: Test Example 5: herbicidal effect by foliage application, plastic box (Table 20, symbol R); assay type: in vivo, Persian speedwell (Veronica persica); conditions: amount of applied herbicide 320 g/ha; foliage application after 14-day growth; evaluated three weeks after application
Outline: as §2

lambsquarters = experiment: Test Example 5: herbicidal effect by foliage application, plastic box (Table 20, symbol O); assay type: in vivo, lambsquarters (Chenopodium album); conditions: amount of applied herbicide 320 g/ha; foliage application after 14-day growth; evaluated three weeks after application
Outline: as §2

southern crabgrass = experiment: Test Example 5: herbicidal effect by foliage application, plastic box (Table 20, symbol F); assay type: in vivo, southern crabgrass (Digitaria ciliaris); conditions: amount of applied herbicide 320 g/ha; foliage application after 14-day growth; evaluated three weeks after application
Outline: as §2

green foxtail = experiment: Test Example 5: herbicidal effect by foliage application, plastic box (Table 20, symbol G); assay type: in vivo, green foxtail (Setaria viridis); conditions: amount of applied herbicide 320 g/ha; foliage application after 14-day growth; evaluated three weeks after application
Outline: as §2

barnyard grass [1] = experiment: Test Example 5: herbicidal effect by foliage application, plastic box (Table 20, symbol H); assay type: in vivo, barnyard grass (Echinochloa crus-galli); conditions: amount of applied herbicide 320 g/ha; foliage application after 14-day growth; evaluated three weeks after application
Outline: as §2

wild oat = experiment: Test Example 5: herbicidal effect by foliage application, plastic box (Table 20, symbol I); assay type: in vivo, wild oat (Avena fatua); conditions: amount of applied herbicide 320 g/ha; foliage application after 14-day growth; evaluated three weeks after application
Outline: as §2

windgrass = experiment: Test Example 5: herbicidal effect by foliage application, plastic box (Table 20, symbol L); assay type: in vivo, windgrass (Apera spica-venti); conditions: amount of applied herbicide 320 g/ha; foliage application after 14-day growth; evaluated three weeks after application
Outline: as §2

velvetleaf = experiment: Test Example 5: herbicidal effect by foliage application, plastic box (Table 20, symbol M); assay type: in vivo, velvetleaf (Abutilon theophrasti); conditions: amount of applied herbicide 320 g/ha; foliage application after 14-day growth; evaluated three weeks after application
Outline: as §2

blackgrass = experiment: Test Example 5: herbicidal effect by foliage application, plastic box (Table 20, symbol J); assay type: in vivo, blackgrass (Alopecurus myosuroides); conditions: amount of applied herbicide 320 g/ha; foliage application after 14-day growth; evaluated three weeks after application
Outline: as §2

chickweed = experiment: Test Example 5: herbicidal effect by foliage application, plastic box (Table 20, symbol P); assay type: in vivo, common chickweed (Stellaria media); conditions: amount of applied herbicide 320 g/ha; foliage application after 14-day growth; evaluated three weeks after application
Outline: as §2

barnyard grass [2] = experiment: Test Example 3: herbicidal effect by foliage application, Wagner pot (Table 18, symbol H); assay type: in vivo, barnyard grass (Echinochloa crus-galli); conditions: 320 g/ha
Outline: as §1

rice flat sedge = experiment: Test Example 3: herbicidal effect by foliage application, Wagner pot (Table 18, symbol E); assay type: in vivo, rice flat sedge (Cyperus iria); conditions: 320 g/ha
Outline: as §1

Italian ryegrass = experiment: Test Example 5: herbicidal effect by foliage application, plastic box (Table 20, symbol K); assay type: in vivo, Italian ryegrass (Lolium multiflorum); conditions: amount of applied herbicide 320 g/ha; foliage application after 14-day growth; evaluated three weeks after application
Outline: as §2

## CCCC(=O)Oc1c(C)nn(C)c(=O)c1-c1c(-c2cccc3c2OCC3)sc2c(Cl)cccc12 [4-099]
Chinese sprangletop
  herbicidal effect on Chinese sprangletop (D): 5 (Herbicidal rate of 90% or more (almost completely withered))
Redroot pigweed
  Herbicidal effect by foliage application, N: redroot pigweed: 2 (Herbicidal rate of 20% or more and less than 40%)
Persian speedwell
  Herbicidal effect by foliage application, R: persian speedwell: 4 (Herbicidal rate of 70% or more and less than 90%)
lambsquarters
  Herbicidal effect by foliage application, O: lambsquarters: 0 (Herbicidal rate of 5% or less (almost no effect))
Southern crabgrass
  Herbicidal effect by foliage application, F: southern crabgrass: 0 (Herbicidal rate of 5% or less (almost no effect))
Green foxtail
  Herbicidal effect by foliage application, G: green foxtail: 0 (Herbicidal rate of 5% or less (almost no effect))
Barnyard grass [1]
  Herbicidal effect by foliage application, H: barnyard grass: 0 (Herbicidal rate of 5% or less (almost no effect))
Wild oat
  Herbicidal effect by foliage application, I: wild oat: 0 (Herbicidal rate of 5% or less (almost no effect))
windgrass
  Herbicidal effect by foliage application, L: windgrass: 0 (Herbicidal rate of 5% or less (almost no effect))
velvetleaf
  Herbicidal effect by foliage application, M: velvetleaf: 1 (Herbicidal rate of 5% or more and less than 20%)
blackgrass
  Herbicidal effect by foliage application, J: blackgrass: 0 (Herbicidal rate of 5% or less (almost no effect))
chickweed
  Herbicidal effect by foliage application, P: chickweed: 1 (Herbicidal rate of 5% or more and less than 20%)
Barnyard grass [2]
  herbicidal effect on barnyard grass (H): 5 (Herbicidal rate of 90% or more (almost completely withered))
Rice flat sedge
  herbicidal effect on rice flat sedge (E): 4 (Herbicidal rate of 70% or more and less than 90%)
Italian ryegrass
  Herbicidal effect by foliage application, K: Italian ryegrass: 0 (Herbicidal rate of 5% or less (almost no effect))

## CSc1ccccc1-c1sc2c(C)cccc2c1-c1c(O)c(C)nn(C)c1=O [4-116]
Chinese sprangletop
  herbicidal effect on Chinese sprangletop (D): 4 (Herbicidal rate of 70% or more and less than 90%)
Redroot pigweed
  Herbicidal effect by foliage application, N: redroot pigweed: 0 (Herbicidal rate of 5% or less (almost no effect))
Persian speedwell
  Herbicidal effect by foliage application, R: persian speedwell: 4 (Herbicidal rate of 70% or more and less than 90%)
lambsquarters
  Herbicidal effect by foliage application, O: lambsquarters: 0 (Herbicidal rate of 5% or less (almost no effect))
Southern crabgrass
  Herbicidal effect by foliage application, F: southern crabgrass: 0 (Herbicidal rate of 5% or less (almost no effect))
Green foxtail
  Herbicidal effect by foliage application, G: green foxtail: 0 (Herbicidal rate of 5% or less (almost no effect))
Barnyard grass [1]
  Herbicidal effect by foliage application, H: barnyard grass: 0 (Herbicidal rate of 5% or less (almost no effect))
Wild oat
  Herbicidal effect by foliage application, I: wild oat: 0 (Herbicidal rate of 5% or less (almost no effect))
windgrass
  Herbicidal effect by foliage application, L: windgrass: 0 (Herbicidal rate of 5% or less (almost no effect))
velvetleaf
  Herbicidal effect by foliage application, M: velvetleaf: 0 (Herbicidal rate of 5% or less (almost no effect))
blackgrass
  Herbicidal effect by foliage application, J: blackgrass: 0 (Herbicidal rate of 5% or less (almost no effect))
chickweed
  Herbicidal effect by foliage application, P: chickweed: 4 (Herbicidal rate of 70% or more and less than 90%)
Barnyard grass [2]
  herbicidal effect on barnyard grass (H): 3 (Herbicidal rate of 40% or more and less than 70%)
Rice flat sedge
  herbicidal effect on rice flat sedge (E): 3 (Herbicidal rate of 40% or more and less than 70%)
Italian ryegrass
  Herbicidal effect by foliage application, K: Italian ryegrass: 0 (Herbicidal rate of 5% or less (almost no effect))

## CCSc1cccc(-c2sc3c(C)cccc3c2-c2c(O)c(C)nn(C)c2=O)c1 [4-122]
Chinese sprangletop
  herbicidal effect on Chinese sprangletop (D): 0 (Herbicidal rate of 5% or less (almost no effect))
Redroot pigweed
  Herbicidal effect by foliage application, N: redroot pigweed: 4 (Herbicidal rate of 70% or more and less than 90%)
Persian speedwell
  Herbicidal effect by foliage application, R: persian speedwell: 4 (Herbicidal rate of 70% or more and less than 90%)
lambsquarters
  Herbicidal effect by foliage application, O: lambsquarters: 4 (Herbicidal rate of 70% or more and less than 90%)
Southern crabgrass
  Herbicidal effect by foliage application, F: southern crabgrass: 3 (Herbicidal rate of 40% or more and less than 70%)
Green foxtail
  Herbicidal effect by foliage application, G: green foxtail: 1 (Herbicidal rate of 5% or more and less than 20%)
Barnyard grass [1]
  Herbicidal effect by foliage application, H: barnyard grass: 1 (Herbicidal rate of 5% or more and less than 20%)
Wild oat
  Herbicidal effect by foliage application, I: wild oat: 0 (Herbicidal rate of 5% or less (almost no effect))
windgrass
  Herbicidal effect by foliage application, L: windgrass: 4 (Herbicidal rate of 70% or more and less than 90%)
velvetleaf
  Herbicidal effect by foliage application, M: velvetleaf: 4 (Herbicidal rate of 70% or more and less than 90%)
blackgrass
  Herbicidal effect by foliage application, J: blackgrass: 1 (Herbicidal rate of 5% or more and less than 20%)
chickweed
  Herbicidal effect by foliage application, P: chickweed: 5 (Herbicidal rate of 90% or more (almost completely withered))
Barnyard grass [2]
  herbicidal effect on barnyard grass (H): 5 (Herbicidal rate of 90% or more (almost completely withered))
Rice flat sedge
  herbicidal effect on rice flat sedge (E): 4 (Herbicidal rate of 70% or more and less than 90%)
Italian ryegrass
  Herbicidal effect by foliage application, K: Italian ryegrass: 4 (Herbicidal rate of 70% or more and less than 90%)
